# Results published in patent US20110077270A1, “Compositions and Methods for Treating Ocular Inflammation with Lower Risk of Increased Intraocular Pressure” (priority 2009, published 2011).
# “And” between values parts separate entries of the source, which are not always exact repeats. Equal values may be shown once.
# Legend:
# Format in all cases: in vivo
# [1] = system: rabbit paracentesis model; test: Clinical evaluation (slit lamp clinical score), rabbit paracentesis model; design: key to Clinical Score −180 min / Clinical Score −5 min / Clinical Score +115 min: 0: normal; 1: discrete dilatation of iris and conjunctival vessels; 2: moderate dilatation of iris and conjunctival vessels; 3: intense iridal hyperemia with flare in the anterior chamber; 4: intense iridal hyperemia with flare in the anterior chamber and presence of fibrinous exudates; settings: for Clinical Score −5 min: 5 min before first paracentesis; for Clinical Score −5 min / Clinical Score +115 min / Clinical Score −180 min: individual eye; for Clinical Score +115 min: 5 min before second paracentesis; for Clinical Score −180 min: basal
# [2] = system: rabbit paracentesis model; test: Pupillary diameter measurement, rabbit paracentesis model; settings: individual eye; for Pupillary diameter T1: −180 min: 50 μl drops, basal; for Pupillary diameter T2: −5 min: 5 min before first paracentesis; for Pupillary diameter T3: +115 min: 5 min before second paracentesis; for Pupillary diameter Δ(T3 − T1): +115 min minus −180 min
# Experimental: (§1) Each rabbit was placed in a restraint device and tagged with the alphanumeric code. The formulations were instilled (50 μl) into the conjunctival sac of both eyes 180, 120, 90 and 30 min before the first paracentesis; then 15, 30, 90 min after the first paracentesis. To perform the first paracentesis the animals were anaesthetized by intravenous injection of 5 mg/kg Zoletil® (Virbac; 2.5 mg/kg tiletamine HCl and 2.5 mg/kg zolazepam HCl) and one drop of local anesthetic (Novesina®, Novartis) was administered to the eye. Anterior chamber paracentesis was performed with a 26 G needle attached to a tuberculin syringe; the needle was introduced into the anterior chamber through the cornea, taking care not to damage the tissues. Two hours after the first paracentesis, the animals were sacrificed with 0.4 ml Tanax® (Intervet International B.V.) and the second paracentesis was performed. About 100 μl of aqueous humor were removed at the second paracentesis. Aqueous humor was immediately split in four aliquots and stored at −80° C. until analysis. Then both eyes were enucleated and the iris-ciliary body was carefully excised, placed in polypropylene tubes, and stored at −80° C. until analysis.
# The pupillary diameter of both eyes was measured with a Castroviejo caliper 180 min and 5 min before the first paracentesis and 5 min before the second paracentesis.
# [3] = system: leukocytes (PMN) in aqueous humor; test: Leukocytes (PMN) measurement in aqueous humor, rabbit paracentesis model; settings: second paracentesis; for PMN numbers in aqueous humor: individual eye
# Experimental: as §1
# For the determination of the number of leukocytes we used a haemocytometer (Improved Neubauer Chamber; Bright-line, Hausser Scientific) and a Polyvar 2 microscope (Reichert-Jung).
# [4] = system: protein concentration in the aqueous humor; test: Protein measurement in aqueous humor, rabbit paracentesis model; settings: second paracentesis; for Protein level in aqueous humor, Mean: group mean; for Protein level in aqueous humor: individual eye
# Experimental: as §1
# For protein concentration determination in the aqueous humor we used the Protein Quantification Kit (Fluka; Cat. No. 77371; Lot. No. 1303129). Five microliters of aqueous humor were diluted to 100 μl with water. Twenty microliters of samples and of standards were load into a 96-well plate and recorded in a plate layout. Samples were treated following the assay procedure described in the kit. A microplate reader (GDV, Italy; model DV 990 B/V6) set at 670 nm was used for making the calibration and analyzing the samples.
# [5] = system: PGE2 in the aqueous humor; test: Prostaglandin E2 (PGE2) measurement in aqueous humor, rabbit paracentesis model; settings: second paracentesis; for PGE2 level in aqueous humor, Mean: group mean; for PGE2 level in aqueous humor: individual eye
# Experimental: as §1
# For the quantitative determination of PGE2 in the aqueous humor we used the PGE2 Immunoassay kit (R&D Systems; Cat. No. KGE004; Lot. No. 240010). Eleven microliters or 16 μl of aqueous humor were diluted to 110 μl or 160 μl with the calibrator diluent solution provided with the kit. One hundred microliters of samples and of standards were load into a 96-well plate and recorded in a plate layout. Samples were treated following the assay procedure described in the kit. A microplate reader (GDV, Italy; model DV 990 B/V6) set at 450 nm (wavelength correction at 540 nm) was used for making the calibration and analyzing the samples.
# [6] = system: MPO activity in iris-ciliary body; test: Myeloperoxidase (MPO) activity in iris-ciliary body, rabbit paracentesis model; settings: for MPO Unit/g: iris-ciliary body samples collected after the second paracentesis, individual eye samples; for MPO activity in iris-ciliary body, Mean: after second paracentesis, group mean
# Experimental: as §1
# The activity of MPO was measured as previously described by Williams et al.[5] The iris-ciliary bodies were carefully dried, weighed and immersed in 1 ml of hexa-decyl-trimethyl-ammonium bromide solution. Then, the samples were sonicated for 10 sec on ice by a ultrasound homogenizer (HD 2070, Bandelin electronic), freeze-thawed three times, sonicated for 10 sec and centrifuged at 14,000 g for 10 min to remove cellular debris. An aliquot of the supernatant ([…] was diluted to 3 ml with the o-dianisidine 2HCl/H2O2 solution. The change in absorbance at 460 nm was continuously monitored for 5 min by a spectrophotometer (UV/Vis Spectrometer Lambda EZ 201; Perkin Elmer). The slope of the line (Δ/min) was determined for each sample and used to calculate the number of units of MPO in the tissue as follows:
# were ε=11.3 mM^−1. Values were expressed as units of MPO/g of tissue.
# [7] = 0.5% topical formulation, +115 min
smiles,measurement,setting,value
"CC(C(=O)O)c1ccc(-c2ccccc2)c(F)c1 (centres unmarked) [F, flurbiprofen, reference compound]",Clinical Score −5 min,[1]; 0.03% topical formulation,0
same,Clinical Score +115 min,[1]; 0.03% topical formulation,2
same,Percentage of eyes with clinical score 2,"[1]; 0.03% topical formulation, +115 min",100%
same,Clinical Score −180 min,[1]; 0.03% topical formulation,0
same,Percentage of eyes with clinical score 0,"[1]; 0.03% topical formulation, −5 min",100%
same,Percentage of eyes with clinical score 0,"[1]; 0.03% topical formulation, −180 min (basal)",100%
same,Pupillary diameter T1: −180 min,[2]; 0.03% topical formulation,5.0 mm (2×) and 7.0 mm and 6.0 mm (4×) and 5.5 mm
same,Pupillary diameter T2: −5 min,[2]; 0.03% topical formulation,6.0 mm (3×) and 6.5 mm (3×) and 7.0 mm and 5.5 mm
same,Pupillary diameter T3: +115 min,[2]; 0.03% topical formulation,4.0 mm and 3.5 mm and 5.5 mm (2×) and 5.0 mm (2×) and 4.5 mm and 6.0 mm
same,Pupillary diameter Δ(T3 − T1),[2]; 0.03% topical formulation,−1.0 mm (3×) and −1.5 mm (3×) and 0.0 mm (2×)
same,PMN numbers in aqueous humor,[3]; 0.03% topical formulation,50 number/μl and 40 number/μl (2×) and 20 number/μl (2×) and 10 number/μl and 30 number/μl
same,"Protein level in aqueous humor, Mean",[4]; 0.03% topical formulation,20.910 mg/mL
same,Protein level in aqueous humor,[4]; 0.03% topical formulation,20.78 mg/mL and 28.80 mg/mL and 23.41 mg/mL and 20.21 mg/mL and 17.53 mg/mL and 15.12 mg/mL and 20.52 mg/mL
same,"PGE2 level in aqueous humor, Mean",[5]; 0.03% topical formulation,1.189 ng/mL
same,PGE2 level in aqueous humor,[5]; 0.03% topical formulation,1.04 ng/ml and 0.75 ng/ml and 0.85 ng/ml and 1.11 ng/ml and 2.11 ng/ml (2×) and 0.93 ng/ml and 0.61 ng/ml
same,MPO Unit/g,[6]; 0.03% F,1.10 Unit/g and 1.70 Unit/g and 0.34 Unit/g and 0.75 Unit/g and 0.74 Unit/g and 0.63 Unit/g and 0.73 Unit/g and 1.27 Unit/g
same,"MPO, p vs CTR",[6]; 0.03% topical formulation,< 0.01
same,"MPO activity in iris-ciliary body, Mean",[6]; 0.03% topical formulation,0.906 MPO Unit/g
"CCOC(=O)O[C@]1(C(=O)OCCl)CC[C@H]2[C@@H]3CCC4=CC(=O)C=C[C@]4(C)[C@H]3[C@@H](O)C[C@@]21C [LE, loteprednol etabonate, reference compound]",Clinical Score −5 min,[1]; 0.5% topical formulation,0
same,Clinical Score +115 min,[1]; 0.5% topical formulation,2 (2×) and 1 (6×)
same,Percentage of eyes with clinical score 1,[1]; [7],75%
same,Percentage of eyes with clinical score 2,[1]; [7],25%
same,"Clinical score, p versus CTR","[1]; 0.5% topical formulation, Kruskal-Wallis, Dunn",< 0.05
same,Clinical Score −180 min,[1]; 0.5% topical formulation,0
same,Percentage of eyes with clinical score 0,"[1]; 0.5% topical formulation, −5 min",100%
same,Percentage of eyes with clinical score 0,"[1]; 0.5% topical formulation, −180 min (basal)",100%
same,Pupillary diameter T1: −180 min,[2]; 0.5% topical formulation,6.0 mm (3×) and 6.5 mm (5×)
same,Pupillary diameter T2: −5 min,[2]; 0.5% topical formulation,6.0 mm (3×) and 6.5 mm (5×)
same,Pupillary diameter T3: +115 min,[2]; 0.5% topical formulation,4.5 mm and 5.0 mm (2×) and 5.5 mm (2×) and 6.0 mm (3×)
same,Pupillary diameter Δ(T3 − T1),[2]; 0.5% topical formulation,−1.5 mm (2×) and −1.0 mm (3×) and 0.0 mm and −0.5 mm (2×)
same,"PMN numbers in aqueous humor, Mean","[3]; 0.5% topical formulation, group mean",28.333 number/μl
same,PMN numbers in aqueous humor,[3]; 0.5% topical formulation,40 number/μl (2×) and 20 number/μl (3×) and 30 number/μl
same,"Protein level in aqueous humor, Mean",[4]; 0.5% topical formulation,33.905 mg/mL
same,Protein level in aqueous humor,[4]; 0.5% topical formulation,36.14 mg/mL and 39.10 mg/mL and 34.69 mg/mL and 26.10 mg/mL and 26.30 mg/mL and 28.16 mg/mL and 40.90 mg/mL and 39.85 mg/mL
same,"PGE2 level in aqueous humor, Mean",[5]; 0.5% topical formulation,0.672 ng/mL
same,PGE2 level in aqueous humor,[5]; 0.5% topical formulation,^2N/D and 0.23 ng/ml and 0.68 ng/ml and 1.10 ng/ml
same,MPO Unit/g,[6]; 0.5% LE,0.30 Unit/g and 0.51 Unit/g and 0.81 Unit/g and 0.60 Unit/g and 0.73 Unit/g and 1.01 Unit/g
same,"MPO activity in iris-ciliary body, Mean",[6]; 0.5% topical formulation,0.661 MPO Unit/g
